According to patent publication US20210379077A1, “TOPOISOMERASE II CATALYTIC INHIBITOR COMPOUND THERAPEUTICS FOR CANCER TREATMENT, METHODS AND USES” (The University of British Columbia, priority 2018, published 2021):

Experiments:
Topo IIα [1] = target: T1, Topo IIα (Homo sapiens, UniProt P11388); experiment: Chromatin fraction assay; format: cell-based; set-up: endogenous in cells; host or cells: K562; settings: K562 cells, 0, 1 and 10 μM, 24 hours
Description: Whole cell lyses were collected and used to measure protein levels of TOP2α, TOP2β with β-Actin as a loading control; (b) K562 cells were treated with 0, 1, and 10 μM of Top60 for 24 hours. Protein lyses were collected from soluble nuclear extract, chromatin fraction or whole cell lysate. TOP2α and TOP2β protein levels were determined by immunoblotting with Lamin A/C, Histone H3 and β-Actin as loading controls; and (c) Etoposide-resistant K562 cell line was established by treating cells with 0.5 μM of Etoposide for 6 months. TOP2α, TOP2β, and β-actin protein levels were determined by immunoblotting. Etoposide-resistant K562 cells were treated with 0, 1, 10, 15 and 20 μM of Top60, Etoposide or ICRF187 for 48 hours. Cell proliferation rates were determined by MTS assays.
Thermal shift and chromatin fraction assays—In the thermal shift assays, cells were treated with vehicle or compound #60 (Top60) for 1 hour, split into equal aliquots to be heated at 37 to 46 degrees in a PCR machine. Protein lyses were collected to perform immunoblotting assays with Topo II antibodies. In the chromatin fraction assays, cells were treated with vehicle or compound #60 (Top60). Both soluble and chromatin associated proteins were fractioned following the protocol described by Wysocka J et al.^18. Protein lyses were collected to perform immunoblotting assays with Topo II antibodies. […]

Topo IIα [2] = target: T1, Topo IIα; experiment: DNA relaxation assay with supercoiled pHOT plasmid; format: biochemical; set-up: purchased TopoGENE (TopoGEN) TG2000H; settings: 0-50 μM, 37° C., 1 hour
Description: (§1) DNA samples were separated by electrophoresis on 0.8% agarose gels and visualized by ethium bromide staining. The positions of K-DNA and decatenated (D) DNA products are marked by arrows. Experiments were repeated five times and the densitometry of the D bands were used to establish an inhibition curve to calculate IC50. (b) Supercoiled pHOT™ plasmid was incubated with human TOP2a in the presence of 50 μM Etopside, 50 uM ICRF193 or 0-50 μM of compound #60 (Top60) compound at 37° C. for 1 hour. DNA products were separated by electrophoresis on 1% agarose gels and visualized by ethium bromide staining. The positions of supercoiled (SC), nicked (N), and relaxed (R) DNA bands are marked by arrows. Experiments were repeated five times and the densitometiy of the SC bands were used to establish an inhibition curve to calculate IC50. (c) Supercoiled pHOT™ plasmid was incubated with Topoisomerase I prior to addition of either mAMSA or compound #60 (Top60) at concentrations of 0, 5, 10, 25 and 50 μM at 37° C. for 30 minutes. Reactions were stopped by 1% SDS at 37° C. for 15 minutes. DNA products were separated by electrophoresis on a 1% agarose gels and visualized by ethium bromide staining. […]

Topoisomerase II = target: T2, Topoisomerase II (Homo sapiens, UniProt P11388); experiment: Topoisomerase II inhibition screening (supercoiled plasmid relaxation, then kDNA decatenation); format: biochemical; set-up: key to TOP2 Inhib.: Y is an indication that activity was found
T2 construct: purchased TopoGENE (TopoGEN) TG2000H / kit TG1001
T2 sequence (P11388 whole entry): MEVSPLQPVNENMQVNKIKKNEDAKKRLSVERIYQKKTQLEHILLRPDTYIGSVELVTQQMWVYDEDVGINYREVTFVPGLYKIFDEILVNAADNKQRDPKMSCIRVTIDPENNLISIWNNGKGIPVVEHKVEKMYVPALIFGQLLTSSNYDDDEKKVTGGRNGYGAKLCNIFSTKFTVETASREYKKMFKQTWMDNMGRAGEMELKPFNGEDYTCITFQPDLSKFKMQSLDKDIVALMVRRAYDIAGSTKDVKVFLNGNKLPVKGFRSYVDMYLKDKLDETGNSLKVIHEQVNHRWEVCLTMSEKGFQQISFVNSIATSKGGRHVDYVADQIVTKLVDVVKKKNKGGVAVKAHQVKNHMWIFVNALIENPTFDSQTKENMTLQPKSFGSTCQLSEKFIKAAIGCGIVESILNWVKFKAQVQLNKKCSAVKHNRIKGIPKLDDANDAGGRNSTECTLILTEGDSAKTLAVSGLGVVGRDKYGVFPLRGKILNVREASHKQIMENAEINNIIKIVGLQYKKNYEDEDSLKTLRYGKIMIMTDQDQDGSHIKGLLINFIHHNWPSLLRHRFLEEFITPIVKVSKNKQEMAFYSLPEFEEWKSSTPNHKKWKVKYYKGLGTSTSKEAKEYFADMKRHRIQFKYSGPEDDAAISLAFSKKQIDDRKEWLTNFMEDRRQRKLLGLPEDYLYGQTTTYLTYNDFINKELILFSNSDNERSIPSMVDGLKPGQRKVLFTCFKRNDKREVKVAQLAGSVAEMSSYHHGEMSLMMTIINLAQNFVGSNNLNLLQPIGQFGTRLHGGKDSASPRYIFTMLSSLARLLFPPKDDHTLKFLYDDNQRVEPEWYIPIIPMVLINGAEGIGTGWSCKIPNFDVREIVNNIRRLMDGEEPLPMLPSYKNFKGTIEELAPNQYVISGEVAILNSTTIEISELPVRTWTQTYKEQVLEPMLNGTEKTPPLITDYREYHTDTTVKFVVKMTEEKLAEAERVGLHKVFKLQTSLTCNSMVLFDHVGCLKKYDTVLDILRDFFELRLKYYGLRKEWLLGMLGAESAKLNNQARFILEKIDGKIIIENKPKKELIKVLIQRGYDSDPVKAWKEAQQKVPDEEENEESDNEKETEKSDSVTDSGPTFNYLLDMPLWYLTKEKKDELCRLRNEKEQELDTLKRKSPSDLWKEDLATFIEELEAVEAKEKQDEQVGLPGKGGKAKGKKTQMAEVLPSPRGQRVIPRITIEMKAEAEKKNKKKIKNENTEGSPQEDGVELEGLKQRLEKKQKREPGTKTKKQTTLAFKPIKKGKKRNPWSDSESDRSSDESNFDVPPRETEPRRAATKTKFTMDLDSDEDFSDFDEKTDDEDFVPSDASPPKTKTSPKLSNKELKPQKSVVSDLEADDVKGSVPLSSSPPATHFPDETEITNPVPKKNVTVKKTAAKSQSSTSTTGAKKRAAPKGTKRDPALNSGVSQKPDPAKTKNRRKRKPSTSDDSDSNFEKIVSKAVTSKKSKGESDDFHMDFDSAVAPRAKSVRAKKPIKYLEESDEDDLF
Description: In vitro Topo II activity assays—K-DNA decatenation assays were performed using the human Topo II assay kit (TG1001, TopoGENE™) with Etoposide and ICRF193 as poison and catalytic inhibitors respectively. DNA relaxation assays were performed by incubating the supercoiled pHOT™ plasmid with human Topo IIα (TG2000H™, TopoGENE™) at 37 degrees for one hour. Reactions were stopped by adding 10% SDS, EDTA and proteinase K. Plasmid DNAs were separated on DNA agarose gel and stained with ethidium bromide for visualization.
Medium Throughput Screening Assays A supercoiled plasmid relaxation assay was used as a first, course filter to determine candidate small molecules. Small molecule candidates that were sufficiently active in the first round screening were then subject to the kDNA decatenation assay.
Second Round Screening With the discovered active compounds 19 and 23, a new screen was initiated to look for similar molecules. For this, the shape similarity screening program ROCS™^10 was used The compounds chosen for the ROCS™ search was based on the docking conformation of Compound 23. The ZINC-15 library filtered down to 6 million molecules described previously was used for this screening. The top 62 molecules were hand-picked based on their ROCS™ similarity as well as their docking scores. These molecules were ordered and tested with the same medium throughput assays previously described. A large enrichment in the proportion of active molecules was observed, of close to 10-fold relative to the first round, validating the virtual screening pipeline.

Topo IIα [3] = target: T1, Topo IIα; experiment: DNA cleavage assay (linear DNA formation); format: biochemical; set-up: purchased TopoGENE (TopoGEN) TG2000H; settings: supercoiled plasmid with Topo II, 50 μM
Description: as §1, with “minutes.” for “minutes. Reactions were stopped by 1% SDS at 37° C. for 15 minutes. DNA products were separated by electrophoresis on a 1% agarose gels and visualized by ethium bromide staining.”
Top60 is a catalytic inhibitor of Topo II To verify that our lead Compound 60(Top60), the formation of ds DNA breaks was assayed both in and outside of cells. […] Furthermore, H2AXγ protein expression was assessed by Western blot to determine if the lead compound could cause DNA damage in cells, and compared to Etoposide as a control (FIG. 3b). […]

T1 sequence (P11388 whole entry): as above

chromatin binding of Topo IIα (Topo IIα [1]): became unbound from chromatin | IC50 in the relaxation assay (Topo IIα [2]): nanomolar | TOP2 Inhib. (Topoisomerase II): Y | IC50 of Topo II inhibition (Topoisomerase II; assay not specified): nanomolar | relative activity among compounds tested in the screening round (Topoisomerase II; medium throughput relaxation and kDNA decatenation assays): most active of the group | Topoisomerase II inhibitory activity (Topoisomerase II; result in words): inhibits TOP2 activity
SMILES: O=C(Nc1ccc(Nc2ccccc2)cc1)c1ccc[nH]c1=S [Compound 60]
inhibitory activity against Topo II compared with ICRF-193 (Topoisomerase II): more potent inhibitory activity against Topo II than ICRF-193 | formation of linear DNA (double stranded DNA breaks, poison activity) (Topo IIα [3]): no linear DNA is formed | formation of linear DNA (double stranded DNA breaks, poison activity) (Topo IIα [3]; listed as Top60): almost no band corresponding to linear DNA is formed
